Measurements from article PMC7857870, “Design and Synthesis of 4-O-Podophyllotoxin Sulfamate Derivatives as Potential Cytotoxic Agents” (Evidence-based Complementary and Alternative Medicine : eCAM, 2021).
“Also recorded” adds a separate entry of the source.

Tests used:
[1] = system: human breast adenocarcinoma (MCF7); assay: MTT cytotoxicity assay, 72 h; type: cell-based; details: MTT 72 h, read-out: IC50 ± SD, MCF7
Procedure: (§1) Three cancer cell lines, human breast adenocarcinoma (MCF7), human ovary adenocarcinoma (A2780), and human colon adenocarcinoma (HT29), in addition the normal human fetal lung fibroblast (MRC5), were used. All cell lines were obtained from the ATCC. The three cancer cells were subcultured in RPMI-1640 media (10% FBS), while MRC5 was maintained in Eagles minimum essential medium (EMEM, 10% FBS), all at 37°C, 5% CO2, and 100% relative humidity.
(§2) As previously reported, the cytotoxicity of the six compounds, including podophyllotoxin as reference, was evaluated by the MTT assay. The three cell lines and one normal fibroblast cells were separately cultured in 96-well (3 × 10^3/well) and incubated at 37°C overnight. Final compound concentrations are as follows: 0, 0.005, 0.050, 0.500, 5.000, and 25.000 μM (DMSO 0.1%; n = 3). Plates were incubated for 72 h, followed by addition of MTT to each well. Plates were incubated for 3 hr, supernatant was aspirated, and DMSO was added to each well. The absorbance was read on multiplate reader. The optical density of the purple formazan A550 is proportional to the number of viable cells. Compound concentration causing 50% inhibition (IC50) compared to control cell growth (100%) was determined. GraphPad Prism version 5.00 for Windows, GraphPad Software, San Diego California, USA, was used for analysis.

[2] = system: human colon adenocarcinoma (HT29); assay: MTT cytotoxicity assay, 72 h; type: cell-based; details: HT-29, MTT 72 h, read-out: IC50 ± SD, HT29
Procedure: as §1, §2

[3] = system: human ovary adenocarcinoma (A2780); assay: MTT cytotoxicity assay, 72 h; type: cell-based; details: MTT 72 h, read-out: IC50 ± SD, A2780
Procedure: as §1, §2

[4] = system: normal human fetal lung fibroblast (MRC5); assay: MTT cytotoxicity assay, 72 h, normal cells; type: cell-based; details: MTT 72 h, normal fibroblasts, read-out: IC50 ± SD, MRC5
Procedure: as §1, §2

MCF7 cells = assay: Annexin V FITC/PI apoptosis assay (flow cytometry); type: cell-based, human; details: 24 h treatment, 0.5-5.0 µM, dose-dependent
Procedure: Annexin V FITC/PI assay was used to evaluate possible ability to induce apoptosis. MCF7 cells were cultured in 6 well plates (1 × 10^5 cells/well) overnight at 37°C. Compounds 2, 3, and 7 were used to treat cells (0, 0.5, 1.0, and 5.0 µM). After 24 h, the supernatant of treated cells was collected in tubes and kept in ice, and cells were trypsinized and incubated at 37°C before being added to the tubes. MCF7 cells were centrifuged (2000 rpm) and washed with PBS (x1), and pellets resuspended in the binding buffer (100 μL) and annexin V FITC (10 μL). Tubes were incubated at room temperature in dark for 20 min, before adding binding buffer (400 μL) and 10 μL propidium iodide (PI). Analysis was performed by flow cytometry (BC, FC500, USA). Different cell populations (early apoptotic, late apoptotic, and necrotic cells) were identified by annexin V and PI staining.

MCF7, A2780, and HT29 = assay: MTT cytotoxicity assay, text summary over the three cancer cell lines and selectivity versus MRC5; type: cell-based, human; details: for IC50: Homo sapiens, MTT, range over three cancer cell lines, read-out: activity (IC50) against the three cell lines MCF7, A2780 and HT29; for selectivity against MCF7, A2780 and HT29 compared to MRC5 cells: cancer cells versus normal MRC5 cells
Procedure: as §1, §2

[5] = Stability observation of the prepared compound; type: physicochemical; details: excluded from the biological assay

SMILES | IC50 [1] [nM] | IC50 [2] [nM] | IC50 [3] [nM] | IC50 [4] [nM] | increase of early apoptotic MCF7 cell population compared to control (MCF7 cells) | IC50 (MCF7, A2780, and HT29) [nM] | selectivity against MCF7, A2780 and HT29 compared to MRC5 cells (MCF7, A2780, and HT29) | melting point | stability of the compound [5]
COc1cc(C2c3cc4c(cc3C(OS(=O)(=O)Nc3ccc5cc6ccccc6cc5c3)C3COC(=O)C23)OCO4)cc(OC)c1OC (centres unmarked) [Compound 7, 4-N-(2-Anthracenyl)podophyllotoxin Sulfamate] | 2120 ± 989 | 5080 ± 673 | 3650 ± 1940 | 9080 ± 1010 | 1.7–2.2 fold | 2120 to 5080 | – | – | –
COc1cc([C@@H]2c3cc4c(cc3[C@H](O)[C@H]3COC(=O)[C@H]23)OCO4)cc(OC)c1OC [Podophyllotoxin] | 4 ± 1 | 2 ± 1 | 7 ± 1 | 43 ± 60 | – | – | – | – | –
COc1cc(C2c3cc4c(cc3C(OS(N)(=O)=O)C3COC(=O)C23)OCO4)cc(OC)c1OC (centres unmarked) [Compound 2, 4-O-Podophyllotoxin Sulfamate] | 648 ± 87 | 1340 ± 637 | 729 ± 363 | 7510 ± 1510 | 1.7–2.2 fold | ≤ 1000 | less cytotoxic against MRC5 cells; also recorded: moderate selectivity | – | –
COc1cc(C2c3cc4c(cc3C(OS(=O)(=O)NCCc3ccccn3)C3COC(=O)C23)OCO4)cc(OC)c1OC (centres unmarked) [Compound 4, 4-N-(2-Pyridinylethyl)podophyllotoxin Sulfamate] | 212 ± 10 | 228 ± 75 | 456 ± 180 | 48 ± 3 | – | – | no selectivity | 225 °C | –
COc1cc(C2c3cc4c(cc3C(OS(=O)(=O)NCc3ccccn3)C3COC(=O)C23)OCO4)cc(OC)c1OC (centres unmarked) [Compound 3, 4-N-(2-Pyridinylmethyl)podophyllotoxin Sulfamate] | 150 ± 60 | 222 ± 98 | 179 ± 10 | 2030 ± 250 | 1.7–2.2 fold | 150 to 220 | 9.1–13.5 fold | – | –
COc1cc(C2c3cc4c(cc3C(OS(=O)(=O)Nc3ccccn3)C3COC(=O)C23)OCO4)cc(OC)c1OC (centres unmarked) [Compound 5, 4-N-(2-Pyridinyl)podophyllotoxin Sulfamate] | 184 ± 52 | 1048 ± 5 | 132 ± 12 | 47 ± 42 | – | – | no selectivity | 230 °C (dec.) | –
COc1cc(C2c3cc4c(cc3C(OS(=O)(=O)Nc3ccc(F)cc3)C3COC(=O)C23)OCO4)cc(OC)c1OC (centres unmarked) [Compound 6, 4-N-(4-Flourophenyl)podophyllotoxin Sulfamate] | – | – | – | – | – | – | – | 220 °C | unstable
